These results are taken from patent US20120244196A1, “PHARMACEUTICAL COMPOSITION CONTAINING MEDICAMENT-CONTAINING FINE PARTICLES AND METHOD FOR PRODUCING SAME” (NITTO DENKO CORPORATION, priority 2009, published 2012).

“And” between values parts separate entries of the source, which are not always exact repeats. Identical values can stand only once.

The subject of experiment [1] is antibody against OVA in the serum. As to the kind of experiment: mouse immunity experiment, humoral immunity level (ELISA). Format: in vivo, mouse (C57BL/6 lineage). As to conditions: 200 μL intradermal, 62.5 μg/ml egg albumin, 3 injections at one week interval, one week after final injection, N = 2. Here is the method: (§1) 200 μL of small particles of Example 10 (egg albumin concentration 62.5 μg/ml, pH 6.5) or egg albumin solution (egg albumin concentration 62.5 μg/ml, pH 6.5) was intradermally injected to the back of mouse (C57BL/6 lineage). Injection at one week interval was repeated twice, totaling 3 injections. One week after final injection, the humoral immunity level and cellular immunity level of the mouse were evaluated. The humoral immunity level was evaluated by measuring the amount of antibody against OVA in the serum based on the absorbance by ELISA method. The cellular immunity level was evaluated by stimulating the isolated spleen cells with OVA peptide, counting the spot number of the ELISPOT method, and measuring the secreted amount of IFN-y.

Experiment [2] deals with isolated spleen cells stimulated with OVA peptide. Briefly: mouse immunity experiment, cellular immunity level (ELISPOT). Format: in vivo, mouse (C57BL/6 lineage). The following applies: 200 μL intradermal, 62.5 μg/ml egg albumin, 3 injections at one week interval, one week after final injection, N = 2. As to the method:
as §1

As for “OVA solution: egg albumin solution (egg albumin concentration 62.5 μg/ml, pH 6.5), control in mouse immunity experiment”, in experiment [1], the “humoral immunity level of serum (absorbance at 450 nm by ELISA analysis), average” value was determined as 0.32; the “humoral immunity level of serum (absorbance at 450 nm by ELISA analysis), individual mice” value is 0.23 and 0.40. In experiment [2], the “cellular immunity level of spleen cell (SPOT number of ELISPOT analysis), average” value is reported as 62; the “cellular immunity level of spleen cell (SPOT number of ELISPOT analysis), individual mice” value is 77 and 46.
